Measurements published in paper PMC7915588, “Polyphyllin D Shows Anticancer Effect through a Selective Inhibition of Src Homology Region 2-Containing Protein Tyrosine Phosphatase-2 (SHP2)” (Molecules, 2021).

Columns and labels:
SHP2 = target: T1, SHP2 (Homo sapiens, UniProt Q06124); assay: biochemical; parameters: Fluorogenic phosphatase assay, DiFMUP hydrolysis by recombinant PTPs, initial velocity, Ex/Em 355/460 nm; details: read-out: Inhibition by 20 µM polyphyllin D (%)
T1 construct: gene PTPN11
T1 sequence (Q06124 1-526): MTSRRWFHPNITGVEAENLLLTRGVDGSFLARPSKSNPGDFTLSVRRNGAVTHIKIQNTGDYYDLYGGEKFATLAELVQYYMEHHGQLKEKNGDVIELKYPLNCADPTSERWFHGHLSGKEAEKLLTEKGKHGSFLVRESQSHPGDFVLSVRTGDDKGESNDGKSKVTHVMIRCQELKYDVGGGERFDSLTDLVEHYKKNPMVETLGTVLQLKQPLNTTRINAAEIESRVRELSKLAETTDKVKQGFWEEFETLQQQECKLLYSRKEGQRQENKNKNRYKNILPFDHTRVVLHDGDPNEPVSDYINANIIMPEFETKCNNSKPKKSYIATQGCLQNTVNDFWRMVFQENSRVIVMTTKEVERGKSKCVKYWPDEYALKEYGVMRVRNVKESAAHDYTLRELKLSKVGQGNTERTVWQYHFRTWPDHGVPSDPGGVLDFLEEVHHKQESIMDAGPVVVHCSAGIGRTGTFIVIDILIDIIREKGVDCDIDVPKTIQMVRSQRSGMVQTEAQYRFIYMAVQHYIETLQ
Description: (§1) Enzymatic reactions were initiated by the addition of SHP2 (final concentration of 10 nM) to a solution of each of the 658 phytochemical compounds (final concentration of 20 µM) in reaction buffer (20 mM bis-tris pH 6.0, 150 mM NaCl, 2.5 mM dithiothreitol, and 0.01% Triton X-100) containing DiFMUP (final concentration of 140 µM). Changes in the fluorescence intensities were measured continuously for 10 min at Ex/Em = 355/460 nm on a VictorTM X4 multilabel plate reader. Enzyme inhibition was estimated by comparing the reaction velocity in the presence of each compound with that in the absence of any compound. Inhibition of the other PTPs was measured in the same way. Next, we established a screening strategy using a DiFMUP substrate to identify a natural product that inhibits SHP2 activity. Initially, we screened 658 compounds at 20 µM using a 96-well plate system (Figure 2A). […] The selected compounds were tested at 20 µM for SHP2 inhibition, and 14 additional non-receptor-type PTPs (PTP1B, TCPTP, PTPH1, STEP, SHP1, HePTP, PTP-MEG2, PTP-PEST, PTP-BAS, PTP36, PTP-HSCF, PTPD1, LYP, and HD-PTP) were used to investigate the inhibition selectivity. The results were visualized using a heat map analysis by GraphPad Prism (Figure 2B and Table S2 in Supplementary Materials). To identify new SHP2 anticancer natural products, we first performed cloning to express SHP2 protein and then purified it. PTPN11 (Gene ID: 5781) encoding human SHP2 (amino acids sequences 1 to 526) with several extra amino acids were cloned into the MBP-pET 28a (+) vector, which was successfully used to overexpress PTPs with enhanced solubility in an Escherichia coli expression system. Information on amino acids for 15 non-receptor-type PTPs including SHP2 is summarized in Table S3 in the Supplementary Materials. SHP2 was overexpressed in RosettaTM (DE3) and purified using a metal affinity resin (Figure S1 in Supplementary Materials). […] The kcat, KM, and kcat/KM values were determined to be 270 min^−1, 70 μM, and 3.9 μM^−1min^−1, respectively, using the Lineweaver–Burk plot analysis (Table S1 in Supplementary Materials).

PTPN3 (PTPH1) = target: T2, PTPN3 (PTPH1) (Homo sapiens, UniProt P26045); assay: biochemical; parameters: Fluorogenic phosphatase assay, DiFMUP hydrolysis by recombinant PTPs, initial velocity, Ex/Em 355/460 nm; details: read-out: Inhibition by 20 µM polyphyllin D (%)
T2 construct: 403-913
T2 sequence (P26045 1-913): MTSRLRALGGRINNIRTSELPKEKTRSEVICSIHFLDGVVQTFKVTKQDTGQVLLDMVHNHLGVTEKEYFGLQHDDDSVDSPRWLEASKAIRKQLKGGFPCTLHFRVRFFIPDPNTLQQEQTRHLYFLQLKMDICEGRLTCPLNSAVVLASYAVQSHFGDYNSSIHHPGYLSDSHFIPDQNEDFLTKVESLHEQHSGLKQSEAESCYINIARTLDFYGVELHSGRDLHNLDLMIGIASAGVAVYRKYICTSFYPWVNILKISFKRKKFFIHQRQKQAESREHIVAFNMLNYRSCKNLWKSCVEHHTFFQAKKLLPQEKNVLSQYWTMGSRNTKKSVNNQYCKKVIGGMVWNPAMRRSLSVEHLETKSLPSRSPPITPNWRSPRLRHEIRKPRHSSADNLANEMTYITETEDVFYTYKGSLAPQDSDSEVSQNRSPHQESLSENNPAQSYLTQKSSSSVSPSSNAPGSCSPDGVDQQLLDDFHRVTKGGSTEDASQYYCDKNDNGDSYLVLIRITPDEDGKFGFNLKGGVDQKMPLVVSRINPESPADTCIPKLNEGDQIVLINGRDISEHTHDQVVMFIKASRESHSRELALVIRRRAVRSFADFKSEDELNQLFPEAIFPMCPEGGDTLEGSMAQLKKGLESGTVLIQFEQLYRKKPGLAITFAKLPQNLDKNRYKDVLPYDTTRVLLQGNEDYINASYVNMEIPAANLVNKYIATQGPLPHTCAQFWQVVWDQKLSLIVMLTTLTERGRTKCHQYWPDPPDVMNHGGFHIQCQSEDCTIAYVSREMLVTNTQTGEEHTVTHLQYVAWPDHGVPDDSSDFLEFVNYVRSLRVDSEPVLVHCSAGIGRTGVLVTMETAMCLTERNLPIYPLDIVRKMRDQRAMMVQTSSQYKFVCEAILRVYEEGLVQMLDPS
Description: as §1

Structure (SMILES): C[C@@H]1CC[C@@]2(OC1)O[C@H]1C[C@H]3[C@@H]4CC=C5C[C@@H](O[C@@H]6O[C@H](CO)[C@@H](O[C@@H]7O[C@@H](CO)[C@H](O)[C@H]7O)[C@H](O)[C@H]6O[C@@H]6O[C@@H](C)[C@H](O)[C@@H](O)[C@H]6O)CC[C@]5(C)[C@H]4CC[C@]3(C)[C@H]1[C@@H]2C [polyphyllin D]
- inhibition at 20 µM (SHP2): 85.6%
- inhibition at 20 µM (PTPN3 (PTPH1)): 0%
